According to article PMC2912414 (Biochemistry, 2010):

Biological target: T1, HpxJ (Klebsiella michiganensis, UniProt B5B0L4)
T1 sequence (B5B0L4 1-413): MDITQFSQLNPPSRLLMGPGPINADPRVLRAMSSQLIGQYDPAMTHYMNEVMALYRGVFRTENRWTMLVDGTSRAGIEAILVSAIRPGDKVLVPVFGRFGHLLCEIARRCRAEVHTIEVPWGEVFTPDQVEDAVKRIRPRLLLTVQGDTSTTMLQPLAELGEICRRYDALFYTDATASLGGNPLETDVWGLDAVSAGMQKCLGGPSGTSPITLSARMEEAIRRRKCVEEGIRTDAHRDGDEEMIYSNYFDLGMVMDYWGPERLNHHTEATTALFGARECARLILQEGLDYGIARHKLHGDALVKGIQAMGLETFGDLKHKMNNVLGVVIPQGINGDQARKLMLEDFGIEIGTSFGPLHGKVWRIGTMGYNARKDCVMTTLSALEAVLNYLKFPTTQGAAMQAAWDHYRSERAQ
Test: pre-steady-state PLP to PMP conversion
Type: biochemical
Details: amino donor; glyoxylate as acceptor in HPLC assay

N[C@@H](CC(=O)O)C(=O)O [aspartate]
rate of first half reaction: an order of magnitude faster than the next fastest substrate, aspartate
